4 compounds from patent US20250223301A1, “KINASE INHIBITORS, PREPARATION METHODS AND USES THEREOF” (InventisBio Co., Ltd., priority 2022, published 2025) can be followed below.

Series [1] can be described thus: Human microsomal clearance assay. As to conditions: pH 7.4; for CLint scaled at 1 μM: human, liver microsomes; for half-life at 1 μM: human liver microsomes 0.5 mg/mL, 1 uM compound. It counts as in vitro ADME. Here is the method: This study aimed to assess the metabolic stability of a compound in human liver microsomes using a microsomal clearance assay.
A mixture containing 100 mM potassium phosphate, pH 7.4, 0.5 mg/mL liver microsomes, 2 mM NADPH, and 1 μM compound were prepared and added to 96-well plate. The plates were then incubated at 37 ? for different time points (0, 5, 15, 30, 45 minutes) and the reaction was stopped with acetonitrile solution containing an internal standard. The samples were then analyzed by LC/MS/MS to determine how much of the compound remained at each time point. The elimination rate constant and half-life were calculated from the data, and the in vitro intrinsic clearance (CLint) was determined as follows: […]
(Microsomes from liver hold many membrane-bound enzymes, among them those of drug oxidation.)

For a further series, the system named is PBMC. Description: Human PBMC IL-2 assay. It counts as cell-based. As to conditions: anti-CD3/CD28 stimulation overnight, IL-2 level. The method, boiled down: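 Healthy-donor frozen PBMC were thawed, rested 4 h at 37 °C and plated at ~200,000 cells/well. Cells were preincubated 60 min at 37 °C with compound solution (10 uM to 0.6 nM, 8 points, 4-fold, as added), then stimulated overnight with anti-CD3/CD28. Supernatant IL-2 was quantified by immunoassay kit and plotted against log compound concentration.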

The next series deals with Jurkat cells. Description: Jurkat IL-2 assay. As to conditions: Homo sapiens, anti-CD3/CD28 stimulation overnight, IL-2 level. The series is classed as cell-based. The method, boiled down: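 Cells in RPMI-1640 with 10% FBS received compound solution (5 uM to 2.3 nM, 8 points, 3-fold dilution) for 60 minutes at 37° C. They were then stimulated overnight at 37° C. with anti-CD3/CD28 antibody. IL-2 in the supernatant was quantified by immunoassay kit and plotted against log compound concentration.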

Series [2] concerns whole blood from male C57BL6 mice. Description: Mouse whole blood IFN-gamma assay. As to conditions: anti-mouse CD3/CD28 0.6 ug/mL, 20 hours. It counts as cell-based. The protocol:
The whole blood from male C57BL6 mice (6-8 weeks old, Beijing Vital River Laboratory Animal Technology Co., Ltd.) was collected, pooled and dispensed at 200 uL per well in a 96-well plate. The blood was treated with compounds for one hour at 37° C. in a humidified 5% CO2 incubator. The blood was then stimulated with anti-mouse CD3 and anti-mouse CD28 antibody (BioLegend Cat #100340, #102116) at a final concentration of 0.6 ug/mL for 20 hours at 37° C. in a humidified 5% CO2 incubator. The blood was spun down, IFN-gamma in the supernatants was measured using ELISA kit (Excellbio Cat #EM002-96, #EM007-96) according the manufacture's instruction.

In series [3] the test system is CT26 murine colorectal adenocarcinoma cells. Description: In vivo efficacy in CT26 syngeneic mouse tumor model. The conditions noted are these: CT26, BALB/c mice; 3 mg/kg PO QD. The protocol: Murine colorectal adenocarcinoma cells CT26 (purchased from ATCC) were cultured in RPMI 1640 medium with 10% FBS. For tumor implantation, 6-8 weeks old BALB/c female mice (Beijing Vital River Laboratory Animal Technology Co., Ltd.) were given a subcutaneous injection of CT26 cell (1×10^7 cells/mL) in 0.1 mL suspension into the right flank. Once tumors grew to a volume of 50-100 mm3, mice were randomized into different groups and treatment was initiated. Mice were treated orally once per day (PO, QD) with DGK inhibitors (3 mg/kg) or vehicle control. Anti-PD-1 antibody (BioXcell, Cat #BE0273), anti-CTLA4 antibody (BioXcell, Cat #BE0164) were diluted with PBS for dosing at 10 mg/kg or 5 mg/kg, respectively. Antibody was administrated via intraperitoneal injection, twice per week. Tumor volume and body weight of mice were recorded twice per week.
All animals were housed in a room maintained at 23:3° C., 65%-75% humidity, with a controlled 12 h light-dark cycle for 5-7 days before experiments. Water and commercial laboratory complete food for mice were provided in the cage.

The target in another series is DGKa (Homo sapiens (Human), UniProt P23743). Nature of the series: biochemical.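 Further: biochemical DGK kinase assay, ADP-Glo luminescence from ADP made by phosphorylating 1,2-dioleoyl-sn-glycerol, 20 min compound preincubation then 40 min reaction at 25 °C, 1% DMSO control.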
The target of the next series is DGKz (Homo sapiens (Human), UniProt Q13574). Nature of the series: DGK ADP-Glo kinase assay (DGKz). The series is classed as biochemical. The conditions noted are these: 5 nM DGKz, 15 uM ATP. The protocol:
Luminescence was recorded using an Tecan SPARK microplate reader.
(In general: ADP-Glo first removes unused ATP, then detects ADP through luciferase.)

Series [4] concerns MC-38 murine colon adenocarcinoma cells. Nature of the series: In vivo efficacy in MC38 syngeneic mouse tumor model. The conditions noted are these: MC38, C57BL/6 mice; compound 67 0.6 mg/kg PO QD in combination with anti-PD-1 2 mg/kg i.p. twice per week. Here is the method:
Murine colon adenocarcinoma cells MC-38 were obtained from American Type Culture Collection (ATCC) and cultured in RPMI 1640 media containing 10% fetal bovine serum (FBS) at 37° C. in a humidified 5% CO2 incubator. Female C57BL/6 mice (20 2 g, 6-8 weeks old) were purchased from SPF Biotechnology Co., Ltd. (Beijing, China). MC-38 cells were collected from flask and suspended in PBS. Suspension of 1×10^6 cells in 0.1 mL culture media without FBS was injected subcutaneously into animal armpits. Once the tumor reached 100-150 mm^3, the mice were randomized into different groups and treatment was initiated. Mice were treated orally once per day (PO, QD) with compound 67 (0.6 mg/kg) or vehicle control. Anti-PD-1 antibody (BioXcell, Cat #BE0273) was diluted with PBS for dosing at 2 mg/kg and was administrated via intraperitoneal injection, twice per week. Tumor volume and body weight of mice were recorded twice per week.
All animals were housed in a room maintained at 23±3° C., 65%-75% humidity, with a controlled 12 h light-dark cycle for 5-7 days before experiments. Water and commercial laboratory complete food for mice were provided in the cage.
Tumor volume was calculated by measuring two perpendicular diameters using the following formula: (L×W^2)/2, in which L and W refer to the length and width tumor diameter, respectively.

Chain of DGKz (Q13574 whole entry): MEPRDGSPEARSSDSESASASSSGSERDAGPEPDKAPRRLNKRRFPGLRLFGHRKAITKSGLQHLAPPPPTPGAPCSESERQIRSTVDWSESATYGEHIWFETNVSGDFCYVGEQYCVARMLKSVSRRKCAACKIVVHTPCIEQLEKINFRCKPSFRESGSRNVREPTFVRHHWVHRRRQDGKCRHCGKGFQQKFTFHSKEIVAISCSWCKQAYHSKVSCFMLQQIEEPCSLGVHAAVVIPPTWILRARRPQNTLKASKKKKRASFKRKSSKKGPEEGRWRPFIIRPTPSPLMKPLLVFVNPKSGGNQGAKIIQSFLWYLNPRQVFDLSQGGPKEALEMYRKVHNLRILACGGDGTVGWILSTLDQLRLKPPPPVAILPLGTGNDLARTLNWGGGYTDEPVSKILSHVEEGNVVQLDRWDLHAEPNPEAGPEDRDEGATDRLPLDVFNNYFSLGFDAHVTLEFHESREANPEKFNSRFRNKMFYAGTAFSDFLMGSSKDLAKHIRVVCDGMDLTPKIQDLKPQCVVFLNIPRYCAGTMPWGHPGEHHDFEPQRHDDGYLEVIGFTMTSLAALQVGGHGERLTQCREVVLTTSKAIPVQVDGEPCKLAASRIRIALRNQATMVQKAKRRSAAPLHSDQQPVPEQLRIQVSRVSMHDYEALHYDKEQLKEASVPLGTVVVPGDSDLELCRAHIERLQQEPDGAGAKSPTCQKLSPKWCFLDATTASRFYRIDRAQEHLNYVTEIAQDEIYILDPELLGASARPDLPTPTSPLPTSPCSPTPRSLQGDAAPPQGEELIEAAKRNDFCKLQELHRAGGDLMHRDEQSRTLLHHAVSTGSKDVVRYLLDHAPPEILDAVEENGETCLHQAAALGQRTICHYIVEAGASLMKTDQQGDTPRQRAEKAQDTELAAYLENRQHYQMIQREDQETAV
Chain of DGKa (P23743 whole entry): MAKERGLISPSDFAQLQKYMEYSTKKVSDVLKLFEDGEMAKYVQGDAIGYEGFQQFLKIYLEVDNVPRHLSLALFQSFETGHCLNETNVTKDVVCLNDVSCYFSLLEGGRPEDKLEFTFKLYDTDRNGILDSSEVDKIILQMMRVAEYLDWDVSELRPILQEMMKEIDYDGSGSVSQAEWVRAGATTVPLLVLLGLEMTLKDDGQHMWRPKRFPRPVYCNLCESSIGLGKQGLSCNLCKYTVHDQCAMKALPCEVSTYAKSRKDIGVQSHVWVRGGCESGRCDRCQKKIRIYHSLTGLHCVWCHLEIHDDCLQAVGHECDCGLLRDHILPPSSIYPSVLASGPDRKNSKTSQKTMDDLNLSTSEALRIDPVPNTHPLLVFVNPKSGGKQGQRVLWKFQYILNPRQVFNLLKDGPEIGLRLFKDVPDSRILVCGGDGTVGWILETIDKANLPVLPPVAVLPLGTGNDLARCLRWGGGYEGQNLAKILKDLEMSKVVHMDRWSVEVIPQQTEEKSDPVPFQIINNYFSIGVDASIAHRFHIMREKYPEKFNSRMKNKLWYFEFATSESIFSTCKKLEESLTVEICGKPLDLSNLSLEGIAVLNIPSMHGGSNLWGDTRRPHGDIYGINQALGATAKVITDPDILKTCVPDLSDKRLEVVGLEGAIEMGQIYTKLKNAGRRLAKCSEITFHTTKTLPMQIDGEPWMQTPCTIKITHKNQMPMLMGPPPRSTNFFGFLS
Description for DGKa: The DGKa and DGKz kinase assays were performed using Promega ADP-Glo kit (Promega, Cat #V9102). One microliter test compound was added to a 384-well plate. Reactions were performed in a 5 uL volume by adding 2 uL mixture of DGK enzyme and ATP in assay buffer (50 mM MOPS pH 7.5, 100 mM NaCl, 10 mM MgCl2, 1 mM CaCl2, 0.0025% BSA, and 1 mM DTT). […] The enzyme solution was incubated with test compound at 25 ? for 20 min. […] The reaction was initiated by the addition of 2 uL of substrate solution (7 uM 1.2-dioleoyl-sn-glycerol, 5 mM octyl-b-D-glucopyranoside) in the 5 uL assay volume. The resulting mixture was incubated at 25° C. for 40 minutes. Next, 5 uL of ADP-Glo-reagent was added to the plate and incubated for 40 minutes. Then 10 uL of kinase detection reagent was added and incubated for 30 minutes. Luminescence was recorded using an Tecan SPARK microplate reader. 1% DMSO vehicle was used as control and no enzyme well was used as blank well.

For the compound `CC[C@@H]1CN2c3c(c(=O)n(C)c4ccc(C#N)nc34)OC[C@@H]2CN1[C@@H](CC)c1ccc(C(F)(F)F)c(Cl)c1` (stereo in doubt) [Compound 246], in series [1], the CLint scaled at 1 μM is 1.1 mL/min/kg. The half-life at 1 μM in series [1] was 25.7 h. In addition, the EC50 came out at 23 nM in the series on PBMC, 30 nM in the series on Jurkat cells and 265 nM in series [2].

Consider `CC[C@@H]1CN2c3c(c(=O)n(C)c4ccc(C#N)nc34)OC[C@@H]2CN1[C@@H](CC)c1ccc(Cl)c(Cl)c1` (stereo in doubt) [Compound 250], for which the CLint scaled at 1 μM in series [1] is 12.3 mL/min/kg. The compound further had a half-life at 1 μM in series [1] of 2.37 h. For the same compound, the Tumor growth entry in series [3] is given as “inhibit tumor growth”. For the same compound, the values for the EC50 (in the series with PBMC; with Jurkat cells; in series [2]) were 16 nM, 32 nM and 144 nM, respectively.

`CC[C@@H](c1ccc(Cl)c(Cl)c1)N1C[C@H]2COc3c(c4nc(C#N)ccc4n(C)c3=O)N2C[C@H]1C` (stereo in doubt) [Compound 322] came in with a CLint scaled at 1 μM in series [1] of 12.4 mL/min/kg. In series [1], this compound gave a half-life at 1 μM of 2.35 h. Besides, the EC50 in the series with PBMC was 25 nM; with Jurkat cells, 12 nM; in series [2], 281 nM.

Turning to `CC[C@@H]1CN2c3c(c(=O)n(C)c4ccc(C#N)nc34)OC[C@@H]2CN1[C@@H](CC)c1ccc(C(F)(F)F)cc1` [Compound 67], the IC50 came to 4 nM on DGKa and 16 nM on DGKz. The same compound came in with a CLint scaled at 1 μM in series [1] of 7.5 mL/min/kg. In series [1], the half-life at 1 μM amounted to 3.88 h. The EC50 was found to be 40 nM in the series on PBMC, 49 nM in the series with Jurkat cells and 102 nM in series [2]. In addition, in series [4], the Tumor inhibition activity result is “significantly better tumor inhibition activity than either of the single agents”.

A word on the CLint scaled: it is a measure of how fast metabolising enzymes remove a compound, apart from limits set by blood flow. Low values mean greater metabolic stability, high ones faster metabolism. As a reminder, the half-life is the time in which the quantity being followed falls by half. Lower therefore signals rapid decline. What is called EC50 is the concentration at which the effect is half-maximal. The term IC50 denotes the point on the concentration scale where inhibition reaches its midpoint. Higher therefore signals weaker potency.
